Patent US20150299188A1, “HETEROCYCLIC COMPOUND” (priority 2012, published 2015)

tested on: FLAP (5-lipoxygenase activating protein); assay: In vitro binding test: displacement of [3H]-7-chloro-3-(5-((3-fluoropyridin-2-yl)methoxy)-2-methylphenyl)-3,4-dihydroquinazolin-2(1H)-one from Sf9 microsome fractions; set-up: species or system human and mouse; conditions: Sf9 microsome fractions expressing FLAP; 100% = radioligand binding with 10 μM sodium 3-(3-(tert-butylsulfanyl)-1-(4-chlorobenzyl)-5-isopropyl-1H-indol-2-yl)-2,2-dimethylpropanoate, 0% = DMSO; test compound concentration not given
Procedure, shortened: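 Sf9 microsomes expressing human or mouse FLAP (2 μg/mL) preincubated with compound 10 min at room temperature, then 120 nM tritiated quinazolinone ligand added for 60 min; buffer 100 mM Tris-HCl pH 7.5 with NaCl, EDTA, DTT, glycerol, Tween20. Bound ligand filtered and counted by scintillation; 10 μM indole propanoate defines 100% inhibition, DMSO 0%.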

Row | SMILES | inhibitory rate (%)
1 | O=C1Nc2cn(CC3CC3)nc2CN1c1cc(OCc2ncccc2F)ccc1Br [Example 360, 6-(2-bromo-5-((3-fluoropyridin-2-yl)methoxy)phenyl)-2-(cyclopropylmethyl)-2,4,6,7-tetrahydro-5H-pyrazolo[4,3-d]pyrimidin-5-one] | 105%
2 | Cc1ccc(OCc2ncccc2F)cc1-n1c(=O)[nH]c2cc(NS(=O)(=O)C3CC3)ccc2c1=O [Example 362, N-(3-(5-((3-fluoropyridin-2-yl)methoxy)-2-methylphenyl)-2,4-dioxo-1,2,3,4-tetrahydroquinazolin-7-yl)cyclopropanesulfonamide] | 110%
3 | Cc1ccc(OCc2ncccc2F)cc1-n1c(=O)[nH]c2cc(C(=O)NC3CC3)ccc2c1=O [Example 363, N-cyclopropyl-3-(5-((3-fluoropyridin-2-yl)methoxy)-2-methylphenyl)-2,4-dioxo-1,2,3,4-tetrahydroquinazoline-7-carboxamide] | 97%
4 | O=c1[nH]c2cccc(Cl)c2c(=O)n1-c1cc(OCc2ncccc2F)c(F)cc1Cl [Example 364, 5-chloro-3-(2-chloro-4-fluoro-5-((3-fluoropyridin-2-yl)methoxy)phenyl)quinazoline-2,4(1H,3H)-dione] | 108%
5 | COc1cccc2[nH]c(=O)n(-c3cc(OCc4ncccc4F)ccc3C)c(=O)c12 [Example 365, 3-(5-((3-fluoropyridin-2-yl)methoxy)-2-methylphenyl)-5-methoxyquinazoline-2,4(1H,3H)-dione] | 94%
6 | COCCOc1cccc2[nH]c(=O)n(-c3cc(OCc4ncccc4F)ccc3C)c(=O)c12 [Example 366, 3-(5-((3-fluoropyridin-2-yl)methoxy)-2-methylphenyl)-5-(2-methoxyethoxy)quinazoline-2,4(1H,3H)-dione] | 95%
7 | Cc1ccc(OCc2ncccc2F)cc1-n1c(=O)[nH]c2cccc(OCC3CC3)c2c1=O [Example 367, 5-(cyclopropylmethoxy)-3-(5-((3-fluoropyridin-2-yl)methoxy)-2-methylphenyl)quinazoline-2,4(1H,3H)-dione] | 100%
8 | O=c1[nH]c2ccc(Br)c(Cl)c2c(=O)n1-c1cc(OCc2ncccc2F)ccc1Cl [Example 368, 6-bromo-5-chloro-3-(2-chloro-5-((3-fluoropyridin-2-yl)methoxy)phenyl)quinazoline-2,4(1H,3H)-dione] | 108%
9 | Cc1ccc(OCc2ncccc2F)cc1-n1c(=O)[nH]c2ccncc2c1=O [Example 369, 3-(5-((3-fluoropyridin-2-yl)methoxy)-2-methylphenyl)pyrido[4,3-d]pyrimidine-2,4(1H,3H)-dione] | 106%
10 | Cc1ccc(OCc2ncccc2F)cc1-n1c(=O)[nH]c2cccc(C(F)(F)F)c2c1=O [Example 370, 3-(5-((3-fluoropyridin-2-yl)methoxy)-2-methylphenyl)-5-(trifluoromethyl)quinazoline-2,4(1H,3H)-dione] | 97%
11 | Cc1ccc(OCc2ncccc2Br)cc1-n1c(=O)[nH]c2ccccc2c1=O [Example 371, 3-(5-((3-bromopyridin-2-yl)methoxy)-2-methylphenyl)quinazoline-2,4(1H,3H)-dione] | 96%
12 | O=c1[nH]c2ccccc2c(=O)n1-c1cc2c(cc1Cl)CCC(c1ncccc1F)O2 (stereo not drawn) [Example 372, 3-(6-chloro-2-(3-fluoropyridin-2-yl)-3,4-dihydro-2H-chromen-7-yl)quinazoline-2,4(1H,3H)-dione] | 95%
